Measured values from publication PMC4028696, “Development of a screen to identify selective small molecules active against patient-derived metastatic and chemoresistant breast cancer cells” (Breast Cancer Research : BCR, 2013).

Experiments:
[1] = Chemical screen, difference in ATP viability between normal and tumor cells; format: cell-based; settings: human, four days, duplicate, read-out: difference in viability between the hTERT-HMEC and PE1007070 cells (selectivity)
Procedure: The hTERT-HMEC and PE1007070 cells were seeded in white 96-well plates (Costar) in 100 μL of modified M87 media at varying densities to achieve 80% to 90% confluency at the end of the assay. The 10 mM DMSO stock solutions from the 560-compound University of Utah Department of Chemistry library were diluted with modified M87 media utilizing an EP Motion 5075 (Eppendorf North America) liquid handler. In addition, corresponding DMSO vehicle and doxorubicin controls were prepared in modified M87 media. After the cells were cultured for 24 hours, 80 μL of media was aspirated from each well. […] After four days of treatment, viability was determined utilizing the ATPlite 1step assay system (Perkin Elmer) according to the manufacturer's instructions. Luminescence measurements were acquired utilizing a Perkin Elmer 2104 EnVision plate reader. Raw luminescence values were normalized to the DMSO vehicle control wells for each plate and cell type. […]
Reagent/ compound dispensing system Eppendorf EP Motion 5075 (Compound dilution) Detection instrument and software Luminescence was detected with a Perkin Elmer Envision 2104 Assay validation/QC 20 µM Doxorubicin was used as a positive control and used to […]
Additional comments Selectivity of compounds was determined by subtracting the average viability of the PE1007070 from the hTERT-HMEC cells […]

[2] = system: PE1007070 cells; assay: Live/dead assay, monolayer; format: cell-based, human; settings: 20 μM, five days, vs DMSO
Procedure: (§1) The hTERT-HMEC and PE1007070 cells were seeded in black wall clear bottom 96-well plates (Greiner Bio-one, Monroe, NC, USA) in 100 μL of modified M87 media at varying densities to achieve 80% to 90% confluency at the end of the assay. After 24 hours, the media were aspirated and the cells were treated with 20 μM C-6 or the corresponding 0.02% (v/v) DMSO vehicle control. After culturing for five days, the viability and cytotoxicity was determined with the Live/dead assay (Life Technologies) according to the manufacturer's instructions. Briefly, the media were aspirated and the cells were treated with 4 μM Calcein-AM and 8 μM Ethidium homodimer-1 diluted in (D)MEM/F12 for 30 minutes at 37°C. Subsequent imaging was performed with an IX81 microscope (Olympus, Center Valley, PA, USA) running Slide Book 5.0 software (Intelligent Imaging Innovations, Denver, CO, USA).

[3] = system: hTERT-HMEC cells; assay: Live/dead assay, monolayer; format: cell-based, human; settings: 20 μM, five days
Procedure: as §1

[4] = system: cleaved caspase-3, caspase-8, cleaved caspase-9, and PARP; assay: Western blot for caspase and PARP cleavage; format: cell-based, human; settings: 30 μM, 48 hours, cell lines, hTERT-HMEC and PE cells
Procedure: Cells were lysed in cold radioimmunoprecipitation assay buffer (50 mM Tris HCl, 150 mM NaCl, 0.1% sodium dodecyl sulfate (SDS), 0.5% sodium deoxycholate, 1% Triton X-100, pH = 8.0) supplemented with protease inhibitor cocktail (Sigma), phosphatase inhibitor cocktail 2 (Sigma) and 1 mM dithiothreitol (DTT) (Sigma). The lysate was sonicated for 30 seconds using a 450 Sonifier (Branson Ultrasonics, Danbury, CT, USA) and was centrifuged at 14,000 RPM for five minutes at 4°C. The protein concentration was determined using the BCA protein assay kit (Peirce, Rockford, IL, USA) and the samples were boiled for five minutes with 4× SDS Laemmli buffer. Equal amounts of protein were resolved on SDS polyacrylamide gels and transferred to an Immobilon-FL PVDF membrane (EMD Millipore). Blots were blocked in Odyssey Blocking Buffer (LI-COR, Lincoln, NE, USA) for one hour at room temperature, stained with primary antibodies overnight at 4°C, washed, and stained with IR800CW or IR680 anti-mouse or rabbit secondary antibodies (LI-COR) for one hour at room temperature. Blots were imaged with the Odyssey Infrared Imaging System (LI-COR). […]

[5] = Solubility (stated property); format: physicochemical

## COc1cc(OC)cc(C(C)c2ccc(NC(=O)OC(C)(C)C)cc2)c1 (centres unmarked) [C-6]
[1]
  viability difference, normal minus tumor cells (selectivity) at 4 days, 20 µM: 62%
[2]
  number of dead cells: led to an increase in the number of dead cells
[3]
  morphology and dead (ethidium positive) cells: did not induce a gross morphological phenotype in the hTERT-HMECs or a significant increase in dead (ethidium bromide positive) cells
[4]
  cleavage of caspase-3, -8, -9, or PARP: did not induce cleavage
[5]
  solubility: poor solubility
